From patent US11040966B2, “Benzimidazole-proline derivatives” (IDORSIA PHARMACEUTICALS LTD, priority 2012, dated 2021)
Where two headings read alike, the source gives them in different places.

Assays:
[1] = test system: amyloid precursor protein transgenic mice; conditions: after acute sleep restriction; cited from earlier work
[2] = test system: rats; conditions: rats treated with the compound; cited from earlier work
[3] = test system: rat; conditions: cited from earlier work
[4] = test system: mouse; conditions: administered chronically; cited from earlier work
[5] = test system: humans; conditions: indication primary insomnia; cited from earlier work
[6] = Measurement of brain and systemic concentration after oral administration; type: in vivo; conditions: rat, male wistar rats, 3 h after oral administration (100 mg/kg), n=3
Method: Measurement of Brain and Systemic Concentration after Oral Administration:
In order to assess brain penetration, the concentration of the compound is measured in plasma ([P]), and brain ([B]), sampled 3 h (or at different time points) following oral administration (e.g. 100 mg/kg) to male wistar rats. The compounds are formulated e.g. in 100% PEG 400. Samples are collected in the same animal at the same time point (+/−5 min). Blood is sampled from the vena cava caudalis into containers with EDTA as anticoagulant and centrifuged to yield plasma. Brain is sampled after cardiac perfusion of 10 mL NaCl 0.9% and homogenized into one volume of cold phosphate buffer (pH 7.4). All samples are extracted with MeOH and analyzed by LC-MS/MS. Concentrations are determined with the help of calibration curves.

[7] = test system: rodents; conditions: cited from earlier work
[8] = brain, read-out: concentration of the compound in brain ([B])
[9] = plasma, read-out: concentration of the compound in plasma ([P])

| Structure (SMILES) | concentration at 3 h [6, 8] [ng/g] | concentration at 3 h [6, 9] [ng/mL] | other results |
| --- | --- | --- | --- |
| CNC(=O)[C@@H](c1ccccc1)N1CCc2cc(OC)c(OC)cc2[C@@H]1CCc1ccc(C(F)(F)F)cc1 [(2R)-2-{(1S)-6,7-dimethoxy-1-[2-(4-trifluoromethyl-phenyl)-ethyl]-3,4-dihydro-1H-isoquinolin-2-yl}-N-methyl-2-phenyl-acetamide] |  |  | brain levels of amyloid-beta (Aβ) and Aβ plaque deposition [1]: decreased; declarative and non-declarative learning and memory [2]: intact; activity in nicotine self-administration model [3]: displayed pharmacological activity; activity in mouse model of depression [4]: antidepressant-like activity; clinical efficacy [5]: showed clinical efficacy |
| Cc1ccc(-n2nccn2)c(C(=O)N2CCC[C@@]2(C)c2nc3cc(Br)cc(C)c3[nH]2)c1 [Example 5.19, [(S)-2-(5-Bromo-7-methyl-1H-benzoimidazol-2-yl)-2-methyl-pyrrolidin-1-yl]-(5-methyl-2-[1,2,3]triazol-2-yl-phenyl)-methanone] | 3880 | 2100 |  |
| COc1ccc(-n2nccn2)c(C(=O)N2CCC[C@@]2(C)c2nc3c(C)c(Cl)ccc3[nH]2)c1 [Example 5.36, [(S)-2-(5-Chloro-4-methyl-1H-benzoimidazol-2-yl)-2-methyl-pyrrolidin-1-yl]-(5-methoxy-2-[1,2,3]triazol-2-yl-phenyl)-methanone] | 1810 | 1280 |  |
| Cc1ccc(-c2ncccn2)c(C(=O)N2CCC[C@@]2(C)c2nc3cc(Br)cc(C)c3[nH]2)c1 [Example 5.277, [(S)-2-(5-Bromo-7-methyl-1H-benzoimidazol-2-yl)-2-methyl-pyrrolidin-1-yl]-(5-methyl-2-pyrimidin-2-yl-phenyl)-methanone] | 5880 | 3560 |  |
| Cn1c(SCC(=O)N2CCC[C@H]2C(=O)Nc2ccccc2-c2ccccc2)nc2ccccc21 [N-biphenyl-2-yl-1-{[(1-methyl-1H-benzimidazol-2-yl)sulfanyl]acetyl}-L-prolinamide] |  |  | behavioral (locomotor sensitization) and molecular (transcriptional responses) changes induced by repeated amphetamine administration [7]: reduced |
